Assay results published in PubChem BioAssay AID256 (DTP/NCI, 2004).
Toxic doses and inconclusive results are not listed. The calls were made as follows: active = survival T/C of 150% or more; inactive = T/C below 125% in these data.

System: CD2F1 mice, L1210 leukemia ip, survival T/C
Assay: NCI In Vivo Anticancer Drug Screen. Data for tumor model L1210 Leukemia (intraperitoneal) in CD2F1 (CDF1) mice
Details: endpoint: mean survival time, higher = longer survival
Outline: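 Activity against a transplanted murine tumor was judged by comparing the compound group with a vehicle group. The outcome in the treated animals was divided by that in the controls.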

[1] = dose: 50.0 mg/kg/injection, schedule: Q01DX001 (ip), vehicle: saline
[2] = dose: 50.0 mg/kg/injection, schedule: Q01DX009 (ip), vehicle: saline
[3] = dose: 50.0 mg/kg/injection, schedule: Q04DX003 (ip), vehicle: saline
[4] = dose: 100.0 mg/kg/injection, schedule: Q01DX001 (ip), vehicle: saline
[5] = dose: 100.0 mg/kg/injection, schedule: Q01DX009 (ip), vehicle: saline
[6] = dose: 100.0 mg/kg/injection, schedule: Q04DX003 (ip), vehicle: saline
[7] = dose: 200.0 mg/kg/injection, schedule: Q01DX001 (ip), vehicle: saline
[8] = dose: 200.0 mg/kg/injection, schedule: Q01DX009 (ip), vehicle: saline
[9] = dose: 200.0 mg/kg/injection, schedule: Q04DX003 (ip), vehicle: saline
[10] = dose: 100.0 mg/kg/injection, schedule: Q04DX002 (ip), vehicle: saline with Tween-80
[11] = dose: 200.0 mg/kg/injection, schedule: Q04DX002 (ip), vehicle: saline with Tween-80
[12] = dose: 400.0 mg/kg/injection, schedule: Q04DX002 (ip), vehicle: saline with Tween-80

Measured: T/C

C[C@]12C=CC(=O)C=C1CC[C@@H]1[C@@H]2C(=O)C[C@@]2(C)[C@H]1CC[C@]2(O)C(=O)CO
inactive: dose: 6.25 mg/kg/injection, schedule: Q03HX008 (ip), vehicle: saline 98 % of control | dose: 6.25 mg/kg/injection, schedule: Q03HX016 (ip), vehicle: saline 97 % of control | dose: 6.25 mg/kg/injection, schedule: Q03HX024 (ip), vehicle: saline 100 % of control | dose: 12.5 mg/kg/injection, schedule: Q03HX008 (ip), vehicle: saline 98 % of control | dose: 12.5 mg/kg/injection, schedule: Q03HX016 (ip), vehicle: saline 98 % of control | dose: 12.5 mg/kg/injection, schedule: Q03HX024 (ip), vehicle: saline 96 % of control | dose: 25.0 mg/kg/injection, schedule: Q01DX009 (ip), vehicle: saline 102 % of control | dose: 25.0 mg/kg/injection, schedule: Q03HX008 (ip), vehicle: saline 101 % of control | dose: 25.0 mg/kg/injection, schedule: Q03HX016 (ip), vehicle: saline 104 % of control | dose: 25.0 mg/kg/injection, schedule: Q03HX024 (ip), vehicle: saline 95 % of control | [1] 93 % of control | dose: 50.0 mg/kg/injection, schedule: Q01DX001 (oral), vehicle: saline 105 % of control | [2] 102 % of control | dose: 50.0 mg/kg/injection, schedule: Q01DX009 (oral), vehicle: saline 100 % of control | dose: 50.0 mg/kg/injection, schedule: Q03HX008 (ip), vehicle: saline 105 % of control | dose: 50.0 mg/kg/injection, schedule: Q03HX016 (ip), vehicle: saline 101 % of control | dose: 50.0 mg/kg/injection, schedule: Q03HX024 (ip), vehicle: saline 101 % of control | [3] 100 % of control | dose: 50.0 mg/kg/injection, schedule: Q08DX002 (ip), vehicle: saline 90 % of control | [4] 102 % of control | dose: 100.0 mg/kg/injection, schedule: Q01DX001 (oral), vehicle: saline 103 % of control | [5] 103 % of control | dose: 100.0 mg/kg/injection, schedule: Q01DX009 (oral), vehicle: saline 96 % of control | dose: 100.0 mg/kg/injection, schedule: Q01DX009 (sc), vehicle: steriod suspending solution 107 % of control | dose: 100.0 mg/kg/injection, schedule: Q03HX008 (ip), vehicle: saline 105 % of control | dose: 100.0 mg/kg/injection, schedule: Q03HX016 (ip), vehicle: saline 98 % of control | dose: 100.0 mg/kg/injection, schedule: Q03HX024 (ip), vehicle: saline 101 % of control | [6] 100 % of control | dose: 100.0 mg/kg/injection, schedule: Q08DX002 (ip), vehicle: saline 91 % of control | [7] 104 % of control | dose: 200.0 mg/kg/injection, schedule: Q01DX001 (oral), vehicle: saline 104 % of control | [8] 90 % of control | dose: 200.0 mg/kg/injection, schedule: Q01DX009 (oral), vehicle: saline 98 % of control | dose: 200.0 mg/kg/injection, schedule: Q01DX009 (sc), vehicle: steriod suspending solution 107 % of control | [9] 107 % of control | dose: 200.0 mg/kg/injection, schedule: Q08DX002 (ip), vehicle: saline 93 % of control | dose: 400.0 mg/kg/injection, schedule: Q01DX001 (ip), vehicle: saline 107 % of control | dose: 400.0 mg/kg/injection, schedule: Q01DX001 (oral), vehicle: saline 105 % of control | dose: 400.0 mg/kg/injection, schedule: Q01DX009 (ip), vehicle: saline 103 % of control | dose: 400.0 mg/kg/injection, schedule: Q01DX009 (oral), vehicle: saline 91 % of control | dose: 400.0 mg/kg/injection, schedule: Q01DX009 (sc), vehicle: steriod suspending solution 104 % of control | dose: 400.0 mg/kg/injection, schedule: Q04DX003 (ip), vehicle: saline 100 % of control | dose: 400.0 mg/kg/injection, schedule: Q08DX002 (ip), vehicle: saline 89 % of control | dose: 800.0 mg/kg/injection, schedule: Q01DX001 (ip), vehicle: saline 107 % of control | dose: 800.0 mg/kg/injection, schedule: Q01DX001 (oral), vehicle: saline 104 % of control | dose: 800.0 mg/kg/injection, schedule: Q01DX009 (oral), vehicle: saline 103 % of control | dose: 800.0 mg/kg/injection, schedule: Q01DX009 (sc), vehicle: steriod suspending solution 98 % of control | dose: 800.0 mg/kg/injection, schedule: Q04DX003 (ip), vehicle: saline 95 % of control | dose: 800.0 mg/kg/injection, schedule: Q08DX002 (ip), vehicle: saline 94 % of control

COc1ccccc1NC(=O)Oc1cccc(OC(=O)c2ccccc2)c1
inactive: [10] 96 % of control | [11] 103 % of control | [12] 88 % of control

CN(C)CCC(O)C(O)CCN(C)C (configuration not stated)
inactive: dose: 75.0 mg/kg/injection, schedule: Q01DX001 (ip), vehicle: other 102 % of control | dose: 150.0 mg/kg/injection, schedule: Q01DX001 (ip), vehicle: other 102 % of control | dose: 300.0 mg/kg/injection, schedule: Q01DX001 (ip), vehicle: other 103 % of control

CSc1ncnc2cn(C3OC(CO)C(O)C3O)nc12 (configuration not stated)
inactive: dose: 6.25 mg/kg/injection, schedule: Q01DX005 (ip), vehicle: water 96 % of control | dose: 12.5 mg/kg/injection, schedule: Q01DX005 (ip), vehicle: water 100 % of control | dose: 25.0 mg/kg/injection, schedule: Q01DX005 (ip), vehicle: water 114 % of control | dose: 50.0 mg/kg/injection, schedule: Q01DX005 (ip), vehicle: water 92 % of control | dose: 100.0 mg/kg/injection, schedule: Q01DX005 (ip), vehicle: water 100 % of control | dose: 200.0 mg/kg/injection, schedule: Q01DX005 (ip), vehicle: water 86 % of control

O=C(O)C(O)C(O)C1[O][Sb][O]C1CO (configuration not stated)
inactive: [1] 97 % of control | [2] 95 % of control | [3] 91 % of control | [4] 93 % of control | [5] 96 % of control | [6] 92 % of control | [7] 98 % of control | [8] 96 % of control | [9] 92 % of control

CN(C)c1ccc(N=Nc2ccc(Cl)c(Cl)c2)cc1
inactive: dose: 100.0 mg/kg/injection, schedule: Q04DX003 (ip), vehicle: saline with Tween-80 98 % of control | dose: 200.0 mg/kg/injection, schedule: Q04DX003 (ip), vehicle: saline with Tween-80 95 % of control | dose: 400.0 mg/kg/injection, schedule: Q04DX003 (ip), vehicle: saline with Tween-80 96 % of control

COC(=O)C1C2CCc3cc(OC)ccc3C2CC(=O)C1(C)C(=O)OC (configuration not stated)
inactive: dose: 100.0 mg/kg/injection, schedule: Q04DX003 (sc), vehicle: steriod suspending solution 103 % of control | dose: 200.0 mg/kg/injection, schedule: Q04DX003 (sc), vehicle: steriod suspending solution 95 % of control | dose: 400.0 mg/kg/injection, schedule: Q04DX003 (sc), vehicle: steriod suspending solution 104 % of control

O=C(NN(C(=O)c1ccccc1)c1ccccc1)c1ccccc1
inactive: [10] 100 % of control | [11] 107 % of control | [12] 103 % of control

CC(=O)C(CNCC(=O)O)(CNCC(=O)O)C(C)=O
inactive: dose: 25.0 mg/kg/injection, schedule: Q04DX002 (ip), vehicle: saline with Tween-80 90 % of control | dose: 50.0 mg/kg/injection, schedule: Q04DX002 (ip), vehicle: saline with Tween-80 94 % of control | [10] 94 % of control
